Data on twelve molecules can be found in US20260241012A1, “1,8-NAPHTHYRIDIN-2-ONE HETEROBIFUNCTIONAL BCL6 DEGRADERS” (Treeline Biosciences, Inc., priority 2022, published 2026).

The assay deals with T1, N-terminal HiBiT tagged BCL6 (Homo sapiens, UniProt P41182).
T1 construct: expressed in transfected cells; host or cells: HT1080 (ATCC CCL-121), stably transduced with lentivirus pLV-UBC-N-HiBiT-BCL6-PGK-puro
Nature of the assay: HiBiT based degradation assay. Type of assay: cell-based. To be noted: HT1080 cells expressing N-terminal HiBiT tagged BCL6, 5 hours of incubation; for Ymin (5 hr): BCL6 degradation normalized with DMSO control; for DC50: four-parameter logistic model, read-out: EC50 (5 hr). An outline of the steps:
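Degradation measured by luminescence from the Nano-Glo HiBiT lytic reagent (15 min, room temperature), normalized to DMSO controls and fitted to a four-parameter curve.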

The structures appear in SMILES notation.

Consider `CNC(=O)COc1cc2cc(Nc3nc(N4CCC(CC5CCN(c6ccc7c(C8CCC(=O)NC8=O)nn(C)c7c6)CC5)CC4)ncc3Cl)cnc2n(C)c1=O` (stereo not drawn) [Compound 140, 2-((6-((5-chloro-2-(4-((1-(3-(2,6-dioxopiperidin-3-yl)-1-methyl-1H-indazol-6-yl)piperidin-4-yl)methyl)piperidin-1-yl)pyrimidin-4-yl)amino)-1-methyl-2-oxo-1,2-dihydro-1,8-naphthyridin-3-yl)oxy)-N-methylacetamide], for which the “Ymin (5 hr)” value is “+++ (30% ≤ Ymin < 50%)” and the DC50 was below 0.01 µM.
Regarding `CNC(=O)COc1cc2cc(Nc3nc(N4CCN(CC5CCN(c6cccc7c(C8CCC(=O)NC8=O)nn(C)c67)CC5)[C@@H](C(F)(F)F)C4)ncc3Cl)cnc2n(C)c1=O` (stereo partly drawn) [Compound 141a, 2-((6-((5-chloro-2-((3R)-4-((1-(3-(2,6-dioxopiperidin-3-yl)-1-methyl-1H-indazol-7-yl)piperidin-4-yl)methyl)-3-(trifluoromethyl)piperazin-1-yl)pyrimidin-4-yl)amino)-1-methyl-2-oxo-1,2-dihydro-1,8-naphthyridin-3-yl)oxy)-N-methylacetamide], the “Ymin (5 hr)” value was “+++ (30% ≤ Ymin < 50%)” and the DC50 fell in the range of 0.01 to 0.1 µM.
Take `CNC(=O)COc1cc2cc(Nc3nc(N4CC5(CCC(Oc6cccc7c(C8CCC(=O)NC8=O)nn(C)c67)CC5)C4)ncc3Cl)cnc2n(C)c1=O` (stereo not drawn) [Compound 142, 2-((6-((5-chloro-2-(7-((3-(2,6-dioxopiperidin-3-yl)-1-methyl-1H-indazol-7-yl)oxy)-2-azaspiro[3.5]nonan-2-yl)pyrimidin-4-yl)amino)-1-methyl-2-oxo-1,2-dihydro-1,8-naphthyridin-3-yl)oxy)-N-methylacetamide]: the “Ymin (5 hr)” value is on record as “+++ (30% ≤ Ymin < 50%)” and the DC50 is below 0.01 µM.
In the same order, the values of `CNC(=O)COc1cc2cc(Nc3nc(N4CCC(CN5C6CCC5CC(c5cccc7c(C8CCC(=O)NC8=O)nn(C)c57)C6)CC4)ncc3Cl)cnc2n(C)c1=O` [Compound 143, 2-((6-((5-chloro-2-(4-(((1R,3s,5S)-3-(3-(2,6-dioxopiperidin-3-yl)-1-methyl-1H-indazol-7-yl)-8-azabicyclo[3.2.1]octan-8-yl)methyl)piperidin-1-yl)pyrimidin-4-yl)amino)-1-methyl-2-oxo-1,2-dihydro-1,8-naphthyridin-3-yl)oxy)-N-methylacetamide] are “++++ (Ymin < 30%)” and below 0.01 µM.
Regarding `CNC(=O)COc1cc2cc(Nc3nc(N4CC5(CCC(Oc6ccc7c(C8CCC(=O)NC8=O)nn(C)c7c6)CC5)C4)ncc3Cl)cnc2n(C)c1=O` (stereo not drawn) [Compound 144, 2-((6-((5-chloro-2-(7-((3-(2,6-dioxopiperidin-3-yl)-1-methyl-1H-indazol-6-yl)oxy)-2-azaspiro[3.5]nonan-2-yl)pyrimidin-4-yl)amino)-1-methyl-2-oxo-1,2-dihydro-1,8-naphthyridin-3-yl)oxy)-N-methylacetamide], the “Ymin (5 hr)” value is “++++ (Ymin < 30%)” and the DC50 is below 0.01 µM.
For the molecule `CCn1c(=O)c(OCC(=O)NC)cc2cc(Nc3nc(N4CCN(CC5CCN(c6cccc7c(C8CCC(=O)NC8=O)nn(C)c67)CC5)CC4)ncc3Cl)cnc21` (stereo not drawn) [Compound 145, 2-((6-((5-chloro-2-(4-((1-(3-(2,6-dioxopiperidin-3-yl)-1-methyl-1H-indazol-7-yl)piperidin-4-yl)methyl)piperazin-1-yl)pyrimidin-4-yl)amino)-1-ethyl-2-oxo-1,2-dihydro-1,8-naphthyridin-3-yl)oxy)-N-methylacetamide], the “Ymin (5 hr)” value is recorded as “++++ (Ymin < 30%)” and the DC50 is below 0.01 µM.
On to `CNC(=O)COc1cc2cc(Nc3nc(N4CCN(CC5CCN(c6cccc7c(C8CCC(=O)NC8=O)nn(C)c67)CC5)[C@H](CO)C4)ncc3Cl)cnc2n(C(C)C)c1=O` (stereo partly drawn) [Compound 146a, 2-((6-((5-chloro-2-((3S)-4-((1-(3-(2,6-dioxopiperidin-3-yl)-1-methyl-1H-indazol-7-yl)piperidin-4-yl)methyl)-3-(hydroxymethyl)piperazin-1-yl)pyrimidin-4-yl)amino)-1-isopropyl-2-oxo-1,2-dihydro-1,8-naphthyridin-3-yl)oxy)-N-methylacetamide], for which the “Ymin (5 hr)” value was “++++ (Ymin < 30%)” and the DC50 is 0.01 to 0.1 µM.
Turning to `CNC(=O)COc1cc2cc(Nc3nc(N4CCN(CC5CCN(c6cccc7c(C8CCC(=O)NC8=O)nn(C)c67)CC5)[C@@H](CO)C4)ncc3Cl)cnc2n(C(C)C)c1=O` (stereo partly drawn) [Compound 146b, 2-((6-((5-chloro-2-((3R)-4-((1-(3-(2,6-dioxopiperidin-3-yl)-1-methyl-1H-indazol-7-yl)piperidin-4-yl)methyl)-3-(hydroxymethyl)piperazin-1-yl)pyrimidin-4-yl)amino)-1-isopropyl-2-oxo-1,2-dihydro-1,8-naphthyridin-3-yl)oxy)-N-methylacetamide], the “Ymin (5 hr)” value was “++++ (Ymin < 30%)” and the DC50 fell in the range of 0.01 to 0.1 µM.
In the same order, the values of `CNC(=O)COc1cc2cc(Nc3nc(N4CCC(Oc5ccc6c(C7CCC(=O)NC7=O)nn(C)c6c5)CC4)ncc3Cl)cnc2n(C)c1=O` (stereo not drawn) [Compound 147, 2-((6-((5-chloro-2-(4-((3-(2,6-dioxopiperidin-3-yl)-1-methyl-1H-indazol-6-yl)oxy)piperidin-1-yl)pyrimidin-4-yl)amino)-1-methyl-2-oxo-1,2-dihydro-1,8-naphthyridin-3-yl)oxy)-N-methylacetamide] are “++++ (Ymin < 30%)” and below 0.01 µM.
On to `CNC(=O)COc1cc2cc(Nc3nc(N4CCC(Oc5cccc6c(C7CCC(=O)NC7=O)nn(C)c56)CC4)ncc3Cl)cnc2n(C)c1=O` (stereo not drawn) [Compound 148, 2-((6-((5-chloro-2-(4-((3-(2,6-dioxopiperidin-3-yl)-1-methyl-1H-indazol-7-yl)oxy)piperidin-1-yl)pyrimidin-4-yl)amino)-1-methyl-2-oxo-1,2-dihydro-1,8-naphthyridin-3-yl)oxy)-N-methylacetamide], for which the “Ymin (5 hr)” value is “+++ (30% ≤ Ymin < 50%)” and the DC50 is below 0.01 µM.
On to `CNC(=O)COc1cc2cc(Nc3nc(N4CCN(CC5CCC6(CC5)CN(c5cccc7c(C8CCC(=O)NC8=O)nn(C)c57)C6)CC4)ncc3Cl)cnc2n(C)c1=O` (stereo not drawn) [Compound 149, 2-((6-((5-chloro-2-(4-((2-(3-(2,6-dioxopiperidin-3-yl)-1-methyl-1H-indazol-7-yl)-2-azaspiro[3.5]nonan-7-yl)methyl)piperazin-1-yl)pyrimidin-4-yl)amino)-1-methyl-2-oxo-1,2-dihydro-1,8-naphthyridin-3-yl)oxy)-N-methylacetamide], for which the “Ymin (5 hr)” value is listed as “+++ (30% ≤ Ymin < 50%)” and the DC50 is 0.01 to 0.1 µM.
In the same order, the values of `CNC(=O)COc1cc2cc(Nc3nc(N4CCN(CC5CCN(c6cccc7c(C8CCC(=O)NC8=O)nn(C)c67)CC5)CC4)ncc3Cl)cnc2n(C2CC2)c1=O` (stereo not drawn) [Compound 150, 2-((6-((5-chloro-2-(4-((1-(3-(2,6-dioxopiperidin-3-yl)-1-methyl-1H-indazol-7-yl)piperidin-4-yl)methyl)piperazin-1-yl)pyrimidin-4-yl)amino)-1-cyclopropyl-2-oxo-1,2-dihydro-1,8-naphthyridin-3-yl)oxy)-N-methylacetamide] are “++++ (Ymin < 30%)” and below 0.01 µM.
